The test system of the experiment is MV-4-11 cells. Kind of experiment: Gene expression microarray analysis (Affymetrix PrimeView) and GSEA. Type of experiment: cell-based, human. To be noted: ProbeSet 11758170_s_at; LIST D. The arrangement: RFU PODN (11730768_x_at) / Fold change /veh PODN (11730768_x_at) / RFU LINC00158 (11744669_a_at) / Fold change /veh LINC00158 (11744669_a_at) / RFU DUSP10 (11751237_a_at) / Fold change /veh DUSP10 (11751237_a_at) / RFU ID3 (11757404_x_at) / Fold change /veh ID3 (11757404_x_at) / RFU PLEKHG5 (11737974_s_at) / Fold change /veh PLEKHG5 (11737974_s_at) / RFU LRRC4B (11730491_at) / Fold change /veh LRRC4B (11730491_at) / RFU GIMAP4 (11747438_a_at) / Fold change /veh GIMAP4 (11747438_a_at) / RFU KRT8 (11758183_x_at) / Fold change /veh KRT8 (11758183_x_at) / RFU CNN1 (11734310_a_at) / Fold change /veh CNN1 (11734310_a_at) / RFU VPS37D (11726825_at) / Fold change /veh VPS37D (11726825_at) / RFU C10orf10 (11716522_x_at) / Fold change /veh C10orf10 (11716522_x_at) / RFU KIR2DL2 /// KIR2DL4 /// KIR2DL5A /// KIR2DL5B /// KIR2DS1 /// KIR2DS2 /// KIR2DS3 /// KIR2DS4 /// KIR3DL3 /// KIR3DL3 /// KIR3DS1 (11738374_at) / Fold change /veh KIR2DL2 /// KIR2DL4 /// KIR2DL5A /// KIR2DL5B /// KIR2DS1 /// KIR2DS2 /// KIR2DS3 /// KIR2DS4 /// KIR3DL3 /// KIR3DL3 /// KIR3DS1 (11738374_at) / RFU C1QL1 (11718748_at) / Fold change /veh C1QL1 (11718748_at) / RFU TMPRSS4 (11747572_a_at) / Fold change /veh TMPRSS4 (11747572_a_at) / RFU HAMP (11756126_x_at) / Fold change /veh HAMP (11756126_x_at) / RFU RNFT2 (11725882_a_at) / Fold change /veh RNFT2 (11725882_a_at) / RFU NR4A2 (11747474_a_at) / Fold change /veh NR4A2 (11747474_a_at) / RFU ABCC12 (11746883_a_at) / Fold change /veh ABCC12 (11746883_a_at) / RFU TMEM136 (11760407_x_at) / Fold change /veh TMEM136 (11760407_x_at) / RFU CLDN22 /// WWC2 (11732394_at) / Fold change /veh CLDN22 /// WWC2 (11732394_at) / RFU HLA-DPB1 (11760878_x_at) / Fold change /veh HLA-DPB1 (11760878_x_at) / RFU SPINT1 (11716480_a_at) / Fold change /veh SPINT1 (11716480_a_at) / RFU GAP43 (11754022_s_at) / Fold change /veh GAP43 (11754022_s_at) / RFU A4GNT (11735810_at) / Fold change /veh A4GNT (11735810_at) / RFU PRB3 (11715151_x_at) / Fold change /veh PRB3 (11715151_x_at) / RFU TUBB4B (11761932_at) / Fold change /veh TUBB4B (11761932_at) / RFU CAPN14 (11732068_a_at) / Fold change /veh CAPN14 (11732068_a_at) / RFU TMCC2 (11721928_a_at) / Fold change /veh TMCC2 (11721928_a_at) / RFU IRGQ (11745062_a_at) / Fold change /veh IRGQ (11745062_a_at) / RFU FAM174B (11720279_a_at) / Fold change /veh FAM174B (11720279_a_at) / RFU TMPRSS4 (11748680_a_at) / Fold change /veh TMPRSS4 (11748680_a_at) / RFU FAM212B (11763350_a_at) / Fold change /veh FAM212B (11763350_a_at) / RFU PLEKHG5 (11743358_a_at) / Fold change /veh PLEKHG5 (11743358_a_at) / RFU ZSCAN30 (11745921_a_at) / Fold change /veh ZSCAN30 (11745921_a_at) / RFU CMKLR1 (11741424_a_at) / Fold change /veh CMKLR1 (11741424_a_at) / RFU LOC101060620 /// MAPK8IP1 (11723275_at) / Fold change /veh LOC101060620 /// MAPK8IP1 (11723275_at) / RFU SPTSSB (11747773_x_at) / Fold change /veh SPTSSB (11747773_x_at) / RFU PRSS12 (11739890_at) / Fold change /veh PRSS12 (11739890_at) / RFU BIN1 (11741810_x_at) / Fold change /veh BIN1 (11741810_x_at) / RFU WNT11 (11732464_a_at) / Fold change /veh WNT11 (11732464_a_at) / RFU C10orf10 (11716521_a_at) / Fold change /veh C10orf10 (11716521_a_at) / RFU C5orf56 (11738089_at) / Fold change /veh C5orf56 (11738089_at) / RFU CYB561 (11721691_x_at) / Fold change /veh CYB561 (11721691_x_at) / RFU ANKRD19P (11752326_a_at) / Fold change /veh ANKRD19P (11752326_a_at) / RFU OR2T12 /// OR2T33 /// OR2T8 (11738714_s_at) / Fold change /veh OR2T12 /// OR2T33 /// OR2T8 (11738714_s_at) / RFU VCAN (11748164_a_at) / Fold change /veh VCAN (11748164_a_at) / RFU JSRP1 (11732532_at) / Fold change /veh JSRP1 (11732532_at) / RFU KRTAP10-11 (11738290_x_at) / Fold change /veh KRTAP10-11 (11738290_x_at) / RFU MYO3A (11730013_a_at) / Fold change /veh MYO3A (11730013_a_at) / RFU EBF3 (11725865_a_at) / Fold change /veh EBF3 (11725865_a_at) / RFU CAMK2N1 (11719241_x_at) / Fold change /veh CAMK2N1 (11719241_x_at) / RFU C5orf56 (11738088_a_at) / Fold change /veh C5orf56 (11738088_a_at) / RFU OLFML3 (11715873_a_at) / Fold change /veh OLFML3 (11715873_a_at) / RFU LOC100653217 /// NTM (11731650_a_at) / Fold change /veh LOC100653217 /// NTM (11731650_a_at) / RFU MAPK11 (11762145_a_at) / Fold change /veh MAPK11 (11762145_a_at) / RFU FIZ1 (11724087_x_at) / Fold change /veh FIZ1 (11724087_x_at) / RFU OASL (11726364_x_at) / Fold change /veh OASL (11726364_x_at) / RFU SOX15 (11748057_x_at) / Fold change /veh SOX15 (11748057_x_at) / RFU CD79A (11719716_a_at) / Fold change /veh CD79A (11719716_a_at) / RFU HIST1H1D (11736915_at) / Fold change /veh HIST1H1D (11736915_at) / RFU CASKIN2 (11723855_a_at) / Fold change /veh CASKIN2 (11723855_a_at) / RFU LOC730098 (11760151_x_at) / Fold change /veh LOC730098 (11760151_x_at) / RFU OR4N2 (11742367_at) / Fold change /veh OR4N2 (11742367_at) / RFU PRRT2 (11749266_a_at) / Fold change /veh PRRT2 (11749266_a_at) / RFU SNX32 (11753110_a_at) / Fold change /veh SNX32 (11753110_a_at) / RFU CDHR5 (11726645_a_at) / Fold change /veh CDHR5 (11726645_a_at) / RFU RCAN1 (11760418_a_at) / Fold change /veh RCAN1 (11760418_a_at) / RFU FAM167A (11723789_a_at) / Fold change /veh FAM167A (11723789_a_at) / RFU FAM26E (11764081_at) / Fold change /veh FAM26E (11764081_at) / RFU ISYNA1 (11749810_s_at) / Fold change /veh ISYNA1 (11749810_s_at) / RFU ACY1 (11761880_at) / Fold change /veh ACY1 (11761880_at) / RFU 11764098_at / Fold change /veh 11764098_at / RFU SAMD14 (11745864_x_at) / Fold change /veh SAMD14 (11745864_x_at) / RFU NPB (11741838_a_at) / Fold change /veh NPB (11741838_a_at) / RFU TMPRSS6 (11731388_a_at) / Fold change /veh TMPRSS6 (11731388_a_at) / RFU KRTAP10-2 (11738614_at) / Fold change /veh KRTAP10-2 (11738614_at) / RFU ARHGAP8 /// PRR5-ARHGAP8 (11727945_x_at) / Fold change /veh ARHGAP8 /// PRR5-ARHGAP8 (11727945_x_at) / RFU KRTAP5-7 /// NADSYN1 (11734609_at) / Fold change /veh KRTAP5-7 /// NADSYN1 (11734609_at) / RFU RASL12 (11751679_a_at) / Fold change /veh RASL12 (11751679_a_at) / RFU CDKN2B (11736163_a_at) / Fold change /veh CDKN2B (11736163_a_at) / RFU PRF1 (11729649_at) / Fold change /veh PRF1 (11729649_at) / RFU, ZNF638 /// ZNF638-IT1 / Fold change vs veh, ZNF638 /// ZNF638-IT1 / RFU, PANK3 / Fold change vs veh, PANK3 / RFU, SH3YL1 / Fold change vs veh, SH3YL1 / RFU, ZEB2 / Fold change vs veh, ZEB2 / RFU, NRIP1 / Fold change vs veh, NRIP1 / RFU, PTTG1IP / Fold change vs veh, PTTG1IP / RFU, CAPN2 / Fold change vs veh, CAPN2 / RFU, MED14 / Fold change vs veh, MED14 / RFU, SNORA58 / Fold change vs veh, SNORA58 / RFU, C1orf63 / Fold change vs veh, C1orf63 / RFU, LRRFIP1 / Fold change vs veh, LRRFIP1 / RFU, NDUFAF7 / Fold change vs veh, NDUFAF7 / RFU, SLC12A2 / Fold change vs veh, SLC12A2 / RFU, IBTK / Fold change vs veh, IBTK / RFU, ESF1 / Fold change vs veh, ESF1 / Fold change vs veh, TMEM50B / RFU, TAOK1 / Fold change vs veh, TAOK1 / RFU, ACBD3 / Fold change vs veh, ACBD3 / RFU, TMA16 / Fold change vs veh, TMA16 / RFU, RWDD3 / Fold change vs veh, RWDD3 / RFU, BCAT1 / Fold change vs veh, BCAT1 / RFU, EDEM3 / Fold change vs veh, EDEM3 / RFU, TMEM33 / Fold change vs veh, TMEM33 / RFU, WDR75 / Fold change vs veh, WDR75 / RFU, AHCTF1 / Fold change vs veh, AHCTF1 / RFU, TFRC / Fold change vs veh, TFRC / RFU, ZDHHC17 / Fold change vs veh, ZDHHC17 / RFU, NOM1 / Fold change vs veh, NOM1 / RFU, ARL8B / Fold change vs veh, ARL8B / RFU, ZBTB11 / Fold change vs veh, ZBTB11 / RFU, TAMM41 / Fold change vs veh, TAMM41 / RFU, KIAA1704 /// LOC100996395 / Fold change vs veh, KIAA1704 /// LOC100996395 / RFU, ING1 / Fold change vs veh, ING1 / RFU, TRMT61B / Fold change vs veh, TRMT61B / RFU, FUBP3 / Fold change vs veh, FUBP3 / RFU, TP53 / Fold change vs veh, TP53 / RFU, TNKS2 / Fold change vs veh, TNKS2 / RFU, ZFP14 / Fold change vs veh, ZFP14 / RFU, ACTR2 / Fold change vs veh, ACTR2 / RFU, PPP3R1 / Fold change vs veh, PPP3R1 / RFU, PIK3R1 / Fold change vs veh, PIK3R1 / RFU, HNRNPA1 / Fold change vs veh, HNRNPA1 / RFU, RNF170 / Fold change vs veh, RNF170 / RFU, ZNF28 / Fold change vs veh, ZNF28 / RFU, RNGTT / Fold change vs veh, RNGTT / RFU, OGT / Fold change vs veh, OGT / RFU, BRD1 / Fold change vs veh, BRD1 / RFU, MARS / Fold change vs veh, MARS / RFU, ZNF655 / Fold change vs veh, ZNF655 / RFU, FAHD1 / Fold change vs veh, FAHD1 / RFU, BDP1 / Fold change vs veh, BDP1 / RFU, LRRCC1 / Fold change vs veh, LRRCC1 / RFU, ARID1A / Fold change vs veh, ARID1A / RFU, ZNF146 / Fold change vs veh, ZNF146 / RFU, ZNF330 / Fold change vs veh, ZNF330 / RFU, GPN3 / Fold change vs veh, GPN3 / RFU, C9orf123 / Fold change vs veh, C9orf123 / RFU, N4BP2L2 / Fold change vs veh, N4BP2L2 / RFU, ARFIP1 / Fold change vs veh, ARFIP1 / RFU, FAM179B / Fold change vs veh, FAM179B / RFU, BCL10 / Fold change vs veh, BCL10 / RFU, UHRF1BP1L / Fold change vs veh, UHRF1BP1L / RFU, BET1 / Fold change vs veh, BET1 / RFU, CNOT2 / Fold change vs veh, CNOT2 / RFU, ZNF268 / Fold change vs veh, ZNF268 / Fold change vs veh, ZNF507 / RFU, DGCR2 / Fold change vs veh, DGCR2 / RFU, WDSUB1 / Fold change vs veh, WDSUB1 / Fold change vs veh, HSP90B1 /// MIR3652 / RFU, ADSS / Fold change vs veh, ADSS / RFU, GK / Fold change vs veh, GK / RFU, ZNF148 / Fold change vs veh, ZNF148 / RFU, TAF9 / Fold change vs veh, TAF9 / RFU, SLC1A5 / Fold change vs veh, SLC1A5 / RFU, SLMO2 / Fold change vs veh, SLMO2 / RFU, ABCC4 / Fold change vs veh, ABCC4 / RFU, LOC101060439 /// RAP1B / Fold change vs veh, LOC101060439 /// RAP1B / RFU, RFX7 / Fold change vs veh, RFX7 / RFU, GTPBP10 / Fold change vs veh, GTPBP10 / RFU, CNEP1R1 / Fold change vs veh, CNEP1R1 / RFU, BIVM-ERCC5 /// ERCC5 / Fold change vs veh, BIVM-ERCC5 /// ERCC5 / RFU, ILF3 / Fold change vs veh, ILF3 / RFU 11762660_at / Fold change /veh 11762660_at / RFU VCAN (11757783_s_at) / Fold change /veh VCAN (11757783_s_at) / RFU DDX43 (11728927_at) / Fold change /veh DDX43 (11728927_at) / RFU KRT8 (11758188_x_at) / Fold change /veh KRT8 (11758188_x_at) / RFU NKD1 (11759106_at) / Fold change /veh NKD1 (11759106_at) / RFU SRD5A1 (11742802_a_at) / Fold change /veh SRD5A1 (11742802_a_at) / RFU TPSAB1 /// TPSB2 (11721975_s_at) / Fold change /veh TPSAB1 /// TPSB2 (11721975_s_at) / RFU GSTM3 (11746129_a_at) / Fold change /veh GSTM3 (11746129_a_at) / RFU IL23R (11737362_x_at) / Fold change /veh IL23R (11737362_x_at) / RFU TMEM51 (11727254_a_at) / Fold change /veh TMEM51 (11727254_a_at) / RFU PIWIL2 (11732686_x_at) / Fold change /veh PIWIL2 (11732686_x_at) / RFU ORM1 (11744905_x_at) / Fold change /veh ORM1 (11744905_x_at) / RFU CCDC152 (11743942_at) / Fold change /veh CCDC152 (11743942_at) / RFU ECM1 (11717891_a_at) / Fold change /veh ECM1 (11717891_a_at) / RFU IL23R (11748794_a_at) / Fold change /veh IL23R (11748794_a_at) / RFU TNFAIP8L3 (11732012_x_at) / Fold change /veh TNFAIP8L3 (11732012_x_at) / RFU MBOAT4 (11741988_at) / Fold change /veh MBOAT4 (11741988_at) / RFU 11764193_at / Fold change /veh 11764193_at / RFU TMEM53 (11763286_at) / Fold change /veh TMEM53 (11763286_at) / RFU MAGEB2 (11727129_at) / Fold change /veh MAGEB2 (11727129_at) / RFU TMEM200A (11744735_a_at) / Fold change /veh TMEM200A (11744735_a_at) / RFU CCDC152 (11751479_a_at) / Fold change /veh CCDC152 (11751479_a_at) / RFU FAM211A (11726209_a_at) / Fold change /veh FAM211A (11726209_a_at) / RFU RGS16 (11746705_a_at) / Fold change /veh RGS16 (11746705_a_at) / RFU VCAN (11755009_s_at) / Fold change /veh VCAN (11755009_s_at) / RFU RHOB (11743442_s_at) / Fold change /veh RHOB (11743442_s_at) / RFU RGS16 (11720943_a_at) / Fold change /veh RGS16 (11720943_a_at) / RFU RGS16 (11720944_at) / Fold change /veh RGS16 (11720944_at) / RFU, VPS4B / Fold change vs veh, VPS4B / RFU, CREB1 / Fold change vs veh, CREB1 / RFU, DNAJC13 / Fold change vs veh, DNAJC13 / RFU, GNAQ / Fold change vs veh, GNAQ / RFU, CDK5R1 / Fold change vs veh, CDK5R1 / RFU, ZRANB3 / Fold change vs veh, ZRANB3 / RFU, CUL4A / Fold change vs veh, CUL4A / RFU, CCNY / Fold change vs veh, CCNY / RFU, UFL1 / Fold change vs veh, UFL1 / RFU, COG3 / Fold change vs veh, COG3 / RFU, DIAPH2 / Fold change vs veh, DIAPH2 / RFU, SKA2 / Fold change vs veh, SKA2 / RFU, AFF3 / Fold change vs veh, AFF3 / RFU, LMF1 / Fold change vs veh, LMF1 / RFU, IPO11 / Fold change vs veh, IPO11 / RFU, DFFB / Fold change vs veh, DFFB / RFU, FOXP1 / Fold change vs veh, FOXP1 / RFU, CARD8 / Fold change vs veh, CARD8 / RFU, STRN3 / Fold change vs veh, STRN3 / RFU, ADK / Fold change vs veh, ADK / RFU, RASSF2 / Fold change vs veh, RASSF2 / RFU, WIPF1 / Fold change vs veh, WIPF1 / RFU, LARP1B / Fold change vs veh, LARP1B / RFU, RASA1 / Fold change vs veh, RASA1 / RFU, RB1 / Fold change vs veh, RB1 / RFU, PPFIA1 / Fold change vs veh, PPFIA1 / RFU, MAT2A / Fold change vs veh, MAT2A / RFU, CCT5 / Fold change vs veh, CCT5 / RFU, WDR92 / Fold change vs veh, WDR92 / RFU, CUX1 / Fold change vs veh, CUX1 / RFU, TTC7A / Fold change vs veh, TTC7A / RFU, TMEM135 / Fold change vs veh, TMEM135 / RFU, DEPTOR / Fold change vs veh, DEPTOR / RFU, CPM / Fold change vs veh, CPM / RFU, DNAJB6 / Fold change vs veh, DNAJB6 / RFU, CACNA2D3 / Fold change vs veh, CACNA2D3 / RFU, DTX4 / Fold change vs veh, DTX4 / RFU, TFCP2 / Fold change vs veh, TFCP2 / RFU, GMCL1 /// GMCL1P1 / Fold change vs veh, GMCL1 /// GMCL1P1 / RFU, AEBP2 / Fold change vs veh, AEBP2 / RFU, SNHG1 /// SNORD22 /// SNORD25 /// SNORD26 /// SNORD27 /// SNORD28 /// SNORD29 /// SNORD31 / Fold change vs veh, SNHG1 /// SNORD22 /// SNORD25 /// SNORD26 /// SNORD27 /// SNORD28 /// SNORD29 /// SNORD31 / Fold change (Aza/veh), C12orf56 (ProbeSet 11735607_a_at) / Fold change (ACY-1035/veh), C12orf56 (ProbeSet 11735607_a_at) / Fold change (Aza/veh), FGFR1OP (ProbeSet 11751329_s_at) / Fold change (ACY-1035/veh), FGFR1OP (ProbeSet 11751329_s_at) / Fold change (Aza/veh), VPS36 (ProbeSet 11739960_a_at) / Fold change (ACY-1035/veh), VPS36 (ProbeSet 11739960_a_at) / RFU SYPL1 (11715823_x_at) / Fold change /veh SYPL1 (11715823_x_at) / RFU IGFBP7 (11715501_s_at) / Fold change /veh IGFBP7 (11715501_s_at) / RFU REEP3 (11722064_at) / Fold change /veh REEP3 (11722064_at) / RFU IGLL1 (11728026_x_at) / Fold change /veh IGLL1 (11728026_x_at): dose or concentration left out as unconfirmed.

We go through one compound from article PMC5218480 (PLoS ONE, 2017).

`Nc1ccc(-c2cccs2)cc1NC(=O)c1ccc2c(c1)cc(C1CC1)n2CCN1CCOCC1` [ACY-1035]: the “RFU, DIAPH2” value was 32.47 RFU.
